Columns and labels:
Assay type in all cases: biochemical
PfMIF [1] = target: T1, PfMIF (Plasmodium falciparum, UniProt Q8I5C5); experiment: biochemical; settings: for PfMIF tautomerase inhibitory activity (active / inactive): result in words
huMIF = target: T2, huMIF (Homo sapiens, UniProt P14174); experiment: Michaelis-Menten kinetics of 4-HPP tautomerization by huMIF
T2 sequence (P14174 2-115 limits assumed): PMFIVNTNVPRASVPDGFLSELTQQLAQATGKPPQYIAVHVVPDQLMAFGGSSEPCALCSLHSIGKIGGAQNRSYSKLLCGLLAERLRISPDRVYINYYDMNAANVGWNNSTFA

PfMIF [2] = target: T1, PfMIF; experiment: Michaelis-Menten kinetics of 4-HPP tautomerization by PfMIF

In the case of `COc1cccc(Oc2ccnc(N3CCOCC3)c2)c1` [Compound 23], the “PfMIF tautomerase inhibitory activity (active / inactive)” value (PfMIF [1]) is reported as “active”.
`COc1cc(C)cc(Oc2cc(C)nc(N3CCOCC3)c2)c1` [Compound 25f] gave a Ki (PfMIF [1]) of 1000 nM.
For `O=C(O)C(=O)Cc1ccc(O)cc1` [Compound 4-HPP, 4-hydroxyphenylpyruvate], the Km (huMIF; enolization) was 1140 ± 216 µM, the kcat (huMIF; enolization) was 208.3 ± 19.3 s⁻¹ and the Km (huMIF; ketonization) was 192 ± 47 µM. The kcat (huMIF; ketonization) was 86.62 ± 11.7 s⁻¹, the Km (PfMIF [2]; enolization) was 675 ± 46.9 µM and the kcat (PfMIF [2]; enolization) was 17.98 ± 0.7 s⁻¹. The Km (PfMIF [2]; ketonization) was 187 ± 50.6 µM and the kcat (PfMIF [2]; ketonization) was 32.90 ± 5.3 s⁻¹.
Work on `COc1cccc(Oc2cc(C)nc(N3CCOCC3)c2)c1` [Compound 25h] yielded a Ki (PfMIF [1]) of about 40 nM.
In the case of `Cc1cc(Oc2cccc(O)c2)nc(-c2ccccc2)n1` [Compound 20], the “times less potent than 25h” value (PfMIF [1]; ratio of PfMIF Ki values) is reported as “more than 400” and the “PfMIF tautomerase inhibitory activity (active / inactive)” value (PfMIF [1]) is reported as “active”.
In the case of `N#Cc1cccc(Oc2ccc(-c3cccc(O)c3)nc2)c1` [Compound 24j], the “times more potent than the 3-hydroxyl analogue 24d” value (PfMIF [1]; ratio of PfMIF Ki values) is reported as “roughly 20”.
With `COc1ccc(-c2cc(Oc3cc(C)cc(OC)c3)cc(C)n2)cc1` [Compound 26k] the Ki (PfMIF [1]) was about 40 nM.
`Oc1cccc(Oc2ccc(-c3cccc(O)c3)nc2)c1` [Compound 24d] was tested, and the “PfMIF tautomerase inhibitory activity (active / inactive)” value (PfMIF [1]) was “active”.
`Oc1ccc(-c2ccc(Oc3cccc(O)c3)cn2)cc1` [Compound 24e] was tested, and the “PfMIF tautomerase inhibitory activity (active / inactive)” value (PfMIF [1]) was “active”.

From publication PMC3509768 (Journal of medicinal chemistry, 2012)
